In US20090281099A1, “SUBSTITUTED PYRAZINONE DERIVATIVES FOR USE AS A MEDICINE” (priority 2006, published 2009):
Where two headings read alike, the source gives them in different places.

What was measured:
5HT-Transporter = target: T1, 5HT-Transporter (Homo sapiens, UniProt P31645); assay: Binding experiment for the 5HT-transporter ([3H]paroxetine, human platelet membranes); conditions: [3H]paroxetine 0.5 nM, read-out: h-5HTT pIC50 (converted)
T1 construct: Human platelet membranes (Oceanix Biosciences Corporation, Hanover, Md., USA) were thawed; tissue Oceanix Biosciences Corporation; host or cells: human platelet membranes

hα2A receptor = target: T2, hα2A receptor (Homo sapiens, UniProt P08913); assay: Radioligand binding experiment for hα2A receptor ([3H]-raulwolscine, CHO cell membranes); conditions: read-out: h-α2A pIC50 (converted)
T2 construct: expressed in transfected cells
T2 sequence (P08913 1-465): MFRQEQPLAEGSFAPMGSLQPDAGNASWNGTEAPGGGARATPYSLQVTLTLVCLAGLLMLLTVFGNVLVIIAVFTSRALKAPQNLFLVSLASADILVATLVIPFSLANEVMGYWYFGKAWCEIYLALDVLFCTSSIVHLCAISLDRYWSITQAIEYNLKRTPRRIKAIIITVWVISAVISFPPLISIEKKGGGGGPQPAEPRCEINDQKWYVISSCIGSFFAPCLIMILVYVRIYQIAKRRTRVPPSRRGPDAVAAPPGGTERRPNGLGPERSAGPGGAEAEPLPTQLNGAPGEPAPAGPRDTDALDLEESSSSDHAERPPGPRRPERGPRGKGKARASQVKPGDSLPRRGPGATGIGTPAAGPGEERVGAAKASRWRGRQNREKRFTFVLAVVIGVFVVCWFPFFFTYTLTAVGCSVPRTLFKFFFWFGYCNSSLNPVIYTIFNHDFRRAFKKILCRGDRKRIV

hα2C receptor = target: T3, hα2C receptor (Homo sapiens, UniProt P18825); assay: Radioligand binding experiment for α2C-adrenoceptor ([3H]-raulwolscine, CHO cell membranes); conditions: read-out: h-α2C pIC50 (converted)
T3 construct: expressed in transfected cells
T3 sequence (P18825 1-462): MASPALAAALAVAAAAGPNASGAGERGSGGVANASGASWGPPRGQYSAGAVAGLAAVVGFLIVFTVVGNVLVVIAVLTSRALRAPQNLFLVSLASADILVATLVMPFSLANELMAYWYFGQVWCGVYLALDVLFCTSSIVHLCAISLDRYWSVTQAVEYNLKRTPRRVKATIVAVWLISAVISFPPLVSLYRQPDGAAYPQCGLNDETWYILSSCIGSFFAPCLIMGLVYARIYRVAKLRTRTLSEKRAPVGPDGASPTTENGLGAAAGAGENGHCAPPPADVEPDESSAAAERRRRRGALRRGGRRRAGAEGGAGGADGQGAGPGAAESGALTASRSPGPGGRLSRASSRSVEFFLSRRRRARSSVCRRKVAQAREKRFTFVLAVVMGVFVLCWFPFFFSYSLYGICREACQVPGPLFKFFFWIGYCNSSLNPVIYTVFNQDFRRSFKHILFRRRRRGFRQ

[1] = [3H]raulwolscine 1 nM, membranes of CHO cells transfected with human α2A receptor
[2] = [3H]raulwolscine 1 nM, membranes of CHO cells transfected with human α2C receptor

T1 sequence (P31645 whole entry): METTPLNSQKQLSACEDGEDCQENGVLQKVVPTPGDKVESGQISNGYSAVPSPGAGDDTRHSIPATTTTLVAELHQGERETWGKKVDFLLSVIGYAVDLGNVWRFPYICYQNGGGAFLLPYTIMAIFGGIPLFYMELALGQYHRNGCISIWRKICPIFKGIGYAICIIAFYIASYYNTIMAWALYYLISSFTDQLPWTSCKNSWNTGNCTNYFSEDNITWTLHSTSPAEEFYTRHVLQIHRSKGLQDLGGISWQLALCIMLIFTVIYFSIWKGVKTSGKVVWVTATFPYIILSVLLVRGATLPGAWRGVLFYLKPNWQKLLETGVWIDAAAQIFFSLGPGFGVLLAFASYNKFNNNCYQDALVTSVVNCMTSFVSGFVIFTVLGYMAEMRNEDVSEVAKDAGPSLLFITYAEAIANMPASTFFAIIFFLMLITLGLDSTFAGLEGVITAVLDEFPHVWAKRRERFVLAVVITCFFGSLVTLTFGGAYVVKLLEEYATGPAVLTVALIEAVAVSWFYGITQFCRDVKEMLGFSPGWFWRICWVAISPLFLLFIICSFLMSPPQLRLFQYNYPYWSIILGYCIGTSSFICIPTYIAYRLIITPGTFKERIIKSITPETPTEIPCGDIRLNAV

Compound | IC50 (5HT-Transporter) [nM] | IC50 (hα2A receptor; [1]) [nM] | IC50 (hα2C receptor; [2]) [nM] | IC50 (hα2A receptor) [nM] | IC50 (hα2C receptor) [nM]
NCCCn1ccnc(NC2CCN(CCOc3ccccc3)CC2)c1=O [Compound 1-1] | > 10000 | 126 | 7.94 | – | –
NCc1ccc(Cn2ccnc(NC3CCN(CCOc4ccccc4)CC3)c2=O)cc1 [Compound 1-2] | 7940 | 15.8 | 1.58 | – | –
CN(C)CCn1ccnc(NC2CCN(CCOc3ccccc3)CC2)c1=O [Compound 1-3] | > 10000 | 158 | 20 | – | –
CN(C)CCCn1ccnc(NC2CCN(CCOc3ccccc3)CC2)c1=O [Compound 1-4] | > 10000 | 200 | 3.98 | – | –
CN(C)C(=O)Cn1ccnc(NC2CCN(CCOc3ccccc3)CC2)c1=O [Compound 1-5] | > 10000 | 501 | 39.8 | – | –
CN(C(=O)Cn1ccnc(NC2CCN(CCOc3ccccc3)CC2)c1=O)C1CCCCC1 [Compound 1-6] | 7940 | 126 | 2 | – | –
C#CCN(C)C(=O)Cn1ccnc(NC2CCN(CCOc3ccccc3)CC2)c1=O [Compound 1-7] | > 10000 | 251 | 12.6 | – | –
O=C(Cn1ccnc(NC2CCN(CCOc3ccccc3)CC2)c1=O)Nc1ccccc1 [Compound 1-8] | 6310 | 158 | 5.01 | – | –
CN(C(=O)Cn1ccnc(NC2CCN(CCOc3ccccc3)CC2)c1=O)c1ccccc1 [Compound 1-9] | 3980 | 100 | 3.16 | – | –
O=C(Cn1ccnc(NC2CCN(CCOc3ccccc3)CC2)c1=O)Nc1ccc(F)cc1 [Compound 1-10] | – | 158 | 3.98 | – | –
O=C(Cn1ccnc(NC2CCN(CCOc3ccccc3)CC2)c1=O)NCc1ccccc1 [Compound 1-11] | 7940 | 251 | 6.31 | – | –
O=c1c(NC2CCN(CCOc3ccccc3)CC2)nccn1-c1cccc(NCc2ccccc2)c1 [Compound 1-12] | 2510 | 50.1 | 3.98 | – | –
CN(Cc1ccccc1)C(=O)Cn1ccnc(NC2CCN(CCOc3ccccc3)CC2)c1=O [Compound 1-13] | 5010 | 126 | 3.98 | – | –
O=C(Cn1ccnc(NC2CCN(CCOc3ccccc3)CC2)c1=O)NCc1ccc(F)cc1 [Compound 1-14] | 7940 | 251 | 2.51 | – | –
O=C(Cn1ccnc(NC2CCN(CCOc3ccccc3)CC2)c1=O)NCCc1ccccc1 [Compound 1-15] | – | 251 | 3.16 | – | –
CN(CCc1ccccc1)C(=O)Cn1ccnc(NC2CCN(CCOc3ccccc3)CC2)c1=O [Compound 1-16] | > 10000 | 200 | 7.94 | – | –
O=C(Cn1ccnc(NC2CCN(CCOc3ccccc3)CC2)c1=O)NCCCc1ccccc1 [Compound 1-17] | 2510 | 316 | 12.6 | – | –
CCCCN(Cc1ccccc1)C(=O)Cn1ccnc(NC2CCN(CCOc3ccccc3)CC2)c1=O [Compound 1-18] | > 10000 | 126 | 6.31 | – | –
O=C(Cn1ccnc(NC2CCN(CCOc3ccccc3)CC2)c1=O)NCC(c1ccccc1)c1ccccc1 [Compound 1-19] | 3160 | 158 | 5.01 | – | –
CC(C)(C)OC(=O)NCCCn1ccnc(NC2CCN(CCOc3ccccc3)CC2)c1=O [Compound 1-20] | 6310 | 126 | 2.51 | – | –
CN(C)CCN(Cc1ccccc1)C(=O)Cn1ccnc(NC2CCN(CCOc3ccccc3)CC2)c1=O [Compound 1-21] | 1580 | 20 | 0.794 | – | –
O=C(Cn1ccnc(NC2CCN(CCOc3ccccc3)CC2)c1=O)N(CCN1CCCC1)Cc1ccccc1 [Compound 1-23] | – | 31.6 | 0.501 | – | –
O=C(Cn1ccnc(NC2CCN(CCOc3ccccc3)CC2)c1=O)N(CCN1CCCC1)Cc1ccc(F)cc1 [Compound 1-24] | 5010 | 15.8 | 0.316 | – | –
O=C(Cn1ccnc(NC2CCN(CCOc3ccccc3)CC2)c1=O)N1CCN(Cc2ccccc2)CC1 [Compound 2-12] | 6310 | – | – | 200 | 2.51

Second part, led by results:

IC50 (5HT-Transporter) [nM] | IC50 (hα2A receptor; [1]) [nM] | IC50 (hα2C receptor; [2]) [nM] | Compound | IC50 (hα2A receptor) [nM] | IC50 (hα2C receptor) [nM]
– | 100 | 2.51 | O=c1c(NC2CCN(CCOc3ccccc3)CC2)nccn1CCN1CCCCC1 [Compound 2-1] | – | –
> 10000 | 251 | 7.94 | O=C(Cn1ccnc(NC2CCN(CCOc3ccccc3)CC2)c1=O)N1CCCCC1 [Compound 2-3] | – | –
2510 | 200 | 20 | O=c1c(NC2CCN(CCOc3ccccc3)CC2)nccn1-c1ccc(N2CCCCC2)cc1 [Compound 2-4] | – | –
3980 | 100 | 1 | O=c1c(NC2CCN(CCOc3ccccc3)CC2)nccn1-c1ccc(CN2CCCCC2)cc1 [Compound 2-5] | – | –
> 10000 | 100 | 3.98 | O=C(Cn1ccnc(NC2CCN(CCOc3ccccc3)CC2)c1=O)N1CCC(C(F)(F)F)CC1 [Compound 2-6] | – | –
1000 | 158 | 5.01 | O=C(Cn1ccnc(NC2CCN(CCOc3ccccc3)CC2)c1=O)N1CCC(Cc2ccccc2)CC1 [Compound 2-7] | – | –
> 10000 | 79.4 | 2.51 | O=C(Cn1ccnc(NC2CCN(CCOc3ccccc3)CC2)c1=O)N1CCC(N2CCCC2)CC1 [Compound 2-8] | – | –
6310 | 7.94 | 1 | O=c1c(NC2CCN(CCOc3ccccc3)CC2)nccn1-c1cccc(N2CCC(N3CCCC3)CC2)c1 [Compound 2-9] | – | –
3160 | 126 | 7.94 | O=c1c(NC2CCN(CCOc3ccccc3)CC2)nccn1-c1ccc(N2CCC(N3CCCC3)CC2)cc1 [Compound 2-10] | – | –
> 10000 | 631 | 20 | O=c1c(NC2CCN(CCOc3ccccc3)CC2)nccn1CCN1CCOCC1 [Compound 2-13] | – | –
1000 | 200 | 1.26 | O=C1c2ccccc2C(=O)N1CCCn1ccnc(NC2CCN(CCOc3ccccc3)CC2)c1=O [Compound 2-15] | – | –
1260 | 501 | 7.94 | O=C1c2ccccc2C(=O)N1CC#CCn1ccnc(NC2CCN(CCOc3ccccc3)CC2)c1=O [Compound 2-16] | – | –
3160 | 126 | 1.26 | O=c1c(NC2CCN(CCOc3ccccc3)CC2)nccn1CCCn1c(=O)[nH]c2ccccc21 [Compound 2-17] | – | –
> 10000 | 631 | 50.1 | COCCn1ccnc(NC2CCN(CCOc3ccccc3)CC2)c1=O [Compound 3-1] | – | –
> 10000 | 158 | 25.1 | COC(=O)Cn1ccnc(NC2CCN(CCOc3ccccc3)CC2)c1=O [Compound 3-2] | – | –
3160 | 251 | 15.8 | CCOC(=O)CCCCn1ccnc(NC2CCN(CCOc3ccccc3)CC2)c1=O [Compound 3-3] | – | –
2510 | 158 | 7.94 | O=c1c(NC2CCN(CCOc3ccccc3)CC2)nccn1Cc1ccccc1Br [Compound 4-1] | – | –
1580 | 158 | 15.8 | O=c1c(NC2CCN(CCOc3ccccc3)CC2)nccn1Cc1cccc(Br)c1 [Compound 4-2] | – | –
– | 200 | 10 | CC(C)(C)C(=O)Cn1ccnc(NC2CCN(CCOc3ccccc3)CC2)c1=O [Compound 5-6] | – | –
